The target of one experiment is T1, uterine OT receptors (Rattus norvegicus, UniProt P70536).
T1 construct: using a crude membrane preparation of uteri; from tissue; host or cells: rat uterus, crude membrane preparation (DES-treated rats)
T1 sequence (P70536 1-388): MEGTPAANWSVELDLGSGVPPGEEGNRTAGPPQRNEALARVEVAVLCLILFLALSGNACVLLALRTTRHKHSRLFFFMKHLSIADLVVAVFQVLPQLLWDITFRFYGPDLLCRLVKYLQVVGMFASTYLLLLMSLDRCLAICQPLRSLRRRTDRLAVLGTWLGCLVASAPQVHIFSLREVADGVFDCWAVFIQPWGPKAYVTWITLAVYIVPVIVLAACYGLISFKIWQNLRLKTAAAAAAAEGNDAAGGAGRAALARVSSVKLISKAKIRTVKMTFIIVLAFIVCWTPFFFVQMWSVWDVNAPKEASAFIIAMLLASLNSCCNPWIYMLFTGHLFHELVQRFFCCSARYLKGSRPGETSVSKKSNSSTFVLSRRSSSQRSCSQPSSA
The experiment is described as follows: [3H]oxytocin (OT) radioligand binding, uterine membranes. Conditions: for inhibition at 10 µM: read-out: % Inhibition rat OT.

Another experiment deals with T2, AVP-V1 sites (Rattus norvegicus, UniProt P30560).
T2 construct: crude membrane preparation of male rat liver; from tissue; host or cells: male rat liver, crude membrane preparation
T2 sequence (P30560 whole entry): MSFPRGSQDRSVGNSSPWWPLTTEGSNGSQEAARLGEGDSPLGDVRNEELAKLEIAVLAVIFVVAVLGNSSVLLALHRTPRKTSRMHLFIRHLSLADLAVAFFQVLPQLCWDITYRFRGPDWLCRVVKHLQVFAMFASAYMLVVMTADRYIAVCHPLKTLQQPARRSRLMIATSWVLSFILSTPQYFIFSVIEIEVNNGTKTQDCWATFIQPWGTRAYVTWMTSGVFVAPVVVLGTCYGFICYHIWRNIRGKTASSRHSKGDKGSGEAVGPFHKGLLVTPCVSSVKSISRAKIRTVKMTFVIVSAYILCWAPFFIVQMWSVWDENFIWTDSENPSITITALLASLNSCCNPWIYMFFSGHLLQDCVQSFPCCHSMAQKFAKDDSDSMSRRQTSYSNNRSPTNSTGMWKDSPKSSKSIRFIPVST
The experiment is described as follows: [3H]vasopressin (AVP) radioligand binding, liver membranes (AVP-V1 sites). Conditions: for inhibition at 3 µM: read-out: % Inhibition rat V1.

Another experiment addresses AVP-V2 sites (Rattus norvegicus, UniProt Q00788). In words: [3H]vasopressin (AVP) radioligand binding, kidney medulla membranes (AVP-V2 sites). Conditions: for inhibition at 3 µM: read-out: % Inhibition rat V2.

pIC50: −log10 of the molar value. Like-named read-outs stand apart in the source and are kept apart here. Where only a bound is given, the exact number is not on record here.

AVP-V2 sites, sequence (Q00788 whole entry): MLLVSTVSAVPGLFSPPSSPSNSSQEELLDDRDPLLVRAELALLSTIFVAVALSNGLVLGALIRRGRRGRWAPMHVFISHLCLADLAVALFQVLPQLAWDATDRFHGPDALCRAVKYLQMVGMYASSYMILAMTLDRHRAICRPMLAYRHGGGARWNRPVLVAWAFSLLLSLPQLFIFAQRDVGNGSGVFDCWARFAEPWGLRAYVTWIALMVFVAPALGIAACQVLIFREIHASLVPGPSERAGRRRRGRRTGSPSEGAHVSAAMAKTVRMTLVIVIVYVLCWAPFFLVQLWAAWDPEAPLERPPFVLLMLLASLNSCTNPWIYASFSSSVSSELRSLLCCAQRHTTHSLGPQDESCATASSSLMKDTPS

The compound `O=C(c1ccc(-c2ccccc2)cc1)N1CCC(N2C(=O)CCc3ccccc32)CC1` [C6H5] showed a negative-log IC50 (pIC50) at uterine OT receptors of 5.46. The results for the inhibition at 3 µM on AVP-V1 sites and at AVP-V2 sites were 65% and 2%, respectively.

Turning to `CC(=O)Nc1ccc(CC(=O)N2CCC(N3C(=O)CCc4ccccc43)CC2)cc1` [CO, p-CH2C6H4NHAc], the results for the negative logarithm of the IC50 (pIC50) at uterine OT receptors, on AVP-V1 sites and at AVP-V2 sites were 5.64, 6.02 and less than 4.00, respectively.

On to `O=C(c1ccc(Cl)cc1Cl)N1CCC(N2C(=O)CCc3ccccc32)CC1` [o-Cl, p-Cl], for which, at uterine OT receptors (@ 10 uM), the inhibition at 10 µM came out at 7%. Also, the inhibition at 3 µM at AVP-V1 sites (@ 3 uM) stood at 34%; at AVP-V2 sites (@ 3 uM) it was 1%.

With `CC(C)(C)c1ccc(C(=O)N2CCC(N3C(=O)CCc4ccccc43)CC2)cc1` [tert-C4H9], on uterine OT receptors, the inhibition at 10 µM was 77%. The negative logarithm of the IC50 (pIC50) on AVP-V1 sites is 6.10; at AVP-V2 sites it was approximately 4.15.

On to `Nc1ccc(CC(=O)N2CCC(N3C(=O)CCc4ccccc43)CC2)cc1` [CO, p-CH2C6H4NH2], for which 1 µM produced 19% inhibition on uterine OT receptors (@ 1 uM). The inhibition at 3 µM at AVP-V1 sites (@ 3 uM) came out at 27%; on AVP-V2 sites (@ 3 uM) it was 1%.

In the case of `Cc1ccc(C(=O)N2CCC(N3C(=O)CCc4ccccc43)CC2)c(C)c1` [o-CH3, p-CH3], the inhibition at 10 µM at uterine OT receptors (@ 10 uM) was found to be 79%. Besides, the inhibition at 3 µM at AVP-V1 sites (@ 3 uM) is 48%; at AVP-V2 sites (@ 3 uM) it was 55%.

`O=C(c1ccc(C(F)(F)F)cc1)N1CCC(N2C(=O)CCc3ccccc32)CC1` [CF3]: on uterine OT receptors, the inhibition at 10 µM amounted to 69%. Moreover, the results for the negative logarithm of the IC50 (pIC50) on AVP-V1 sites and on AVP-V2 sites were 6.10 and 4.22, respectively.

Turning to `COc1cccc(C(=O)N2CCC(N3C(=O)CCc4ccccc43)CC2)c1` [m-OCH3], the negative-log IC50 (pIC50) at uterine OT receptors was 5.57; at AVP-V1 sites, 5.68; on AVP-V2 sites, less than 4.00.

Regarding `O=C(c1ccc(OCCCN2C(=O)c3ccccc3C2=O)cc1)N1CCC(N2C(=O)CCc3ccccc32)CC1` [O(CH2)3NPth (drawing 528)], at AVP-V2 sites, the pIC50 was not above 4.00.

Consider `O=C(c1ccc2[nH]ccc2c1)N1CCC(N2C(=O)CCc3ccccc32)CC1` [CO, 5-indolyl], for which the negative logarithm of the IC50 (pIC50) is 5.77 at uterine OT receptors, 6.62 on AVP-V1 sites and 4.25 on AVP-V2 sites.

For `O=C(c1ccc([N+](=O)[O-])cc1Cl)N1CCC(N2C(=O)CCc3ccccc32)CC1` [o-Cl, p-NO2], on uterine OT receptors, the pIC50 is 4.82. In addition, the inhibition at 3 µM at AVP-V1 sites turned out to be 34%; at AVP-V2 sites, 6%.

Consider `CC1(C)[C@@H]2CC[C@@]1(CS(=O)(=O)N1CCC(N3C(=O)CCc4ccccc43)CC1)C(=O)C2` [SO2, (+)-camphor-10-yl], for which the pIC50 at uterine OT receptors was 5.72; on AVP-V1 sites it was 5.10; at AVP-V2 sites, 4.14.

As for `COc1ccc(CC(=O)N2CCC(N3C(=O)CCc4ccccc43)CC2)cc1` [CO, p-CH2C6H4OCH3], the pIC50 was 5.62 at uterine OT receptors, 5.22 at AVP-V1 sites and less than 4.00 at AVP-V2 sites.

With `COc1ccc(S(=O)(=O)N2CCC(N3C(=O)CCc4ccccc43)CC2)cc1` [SO2, p-C6H4OCH3], the inhibition at 10 µM on uterine OT receptors (@ 10 uM) came to 36%. Further, the inhibition at 3 µM was found to be 15% on AVP-V1 sites (@ 3 uM) and 12% at AVP-V2 sites (@ 3 uM).

In the case of `COc1ccc(C(=O)N2CCC(N3C(=O)CCc4ccccc43)CC2)c(OC)c1` [Example 5], the negative logarithm of the IC50 (pIC50) on uterine OT receptors is 6.25; on AVP-V1 sites, 7.41.

For the compound `O=C(c1ccc2ccccc2c1)N1CCC(N2C(=O)CCc3ccccc32)CC1` [CO, 2-naphthyl], the inhibition at 10 µM on uterine OT receptors is 75%. Besides, the inhibition at 3 µM on AVP-V1 sites was 75%; at AVP-V2 sites, 7%.

On to `O=C(c1ccc(OCCCN2C(=O)c3ccccc3C2=O)cc1)N1CCC(N2C(=O)CCc3ccccc32)CC1` [Example 2], for which, at uterine OT receptors, the pIC50 is 5.96.

Take `COc1ccccc1C(=O)N1CCC(N2C(=O)CCc3ccccc32)CC1` [o-OCH3]: the results for the pIC50 at uterine OT receptors, at AVP-V1 sites and on AVP-V2 sites were 5.96, 6.42 and 4.18, respectively.

For `O=C(c1cccc2ccccc12)N1CCC(N2C(=O)CCc3ccccc32)CC1` [CO, 1-naphthyl], the inhibition at 10 µM at uterine OT receptors (@ 10 uM) worked out at 69%. Further, the inhibition at 3 µM at AVP-V1 sites (@ 3 uM) amounted to 17%; at AVP-V2 sites (@ 3 uM), 5%.

On AVP-V2 sites, `COc1ccc(C(=O)N2CCC(N3C(=O)CCc4ccccc43)CC2)c(OC)c1` [o-OCH3, p-OCH3 (drawing 527)] gave a negative logarithm of the IC50 (pIC50) of 4.55.

The values above are taken from patent publication US5356904A, “Carbostyril oxytocin receptor antagonists” (Merck & Co., Inc., priority 1992, dated 1994).
